Data reported in US9409908B2 (priority 2012, dated 2016).
Structures can show the parent of a compound that is named as a salt.

What was measured:
[1] = target: purified human Factor XIa (Homo sapiens (Human), UniProt P03951); experiment: biochemical; type: biochemical; conditions: read-out: Factor XIa Ki
[2] = target: purified human plasma kallikrein (Homo sapiens (Human), UniProt P03952); experiment: biochemical; type: biochemical; conditions: read-out: Plasma Kallikrein Ki
purified human plasma kallikrein, sequence (P03952 whole entry, looked up): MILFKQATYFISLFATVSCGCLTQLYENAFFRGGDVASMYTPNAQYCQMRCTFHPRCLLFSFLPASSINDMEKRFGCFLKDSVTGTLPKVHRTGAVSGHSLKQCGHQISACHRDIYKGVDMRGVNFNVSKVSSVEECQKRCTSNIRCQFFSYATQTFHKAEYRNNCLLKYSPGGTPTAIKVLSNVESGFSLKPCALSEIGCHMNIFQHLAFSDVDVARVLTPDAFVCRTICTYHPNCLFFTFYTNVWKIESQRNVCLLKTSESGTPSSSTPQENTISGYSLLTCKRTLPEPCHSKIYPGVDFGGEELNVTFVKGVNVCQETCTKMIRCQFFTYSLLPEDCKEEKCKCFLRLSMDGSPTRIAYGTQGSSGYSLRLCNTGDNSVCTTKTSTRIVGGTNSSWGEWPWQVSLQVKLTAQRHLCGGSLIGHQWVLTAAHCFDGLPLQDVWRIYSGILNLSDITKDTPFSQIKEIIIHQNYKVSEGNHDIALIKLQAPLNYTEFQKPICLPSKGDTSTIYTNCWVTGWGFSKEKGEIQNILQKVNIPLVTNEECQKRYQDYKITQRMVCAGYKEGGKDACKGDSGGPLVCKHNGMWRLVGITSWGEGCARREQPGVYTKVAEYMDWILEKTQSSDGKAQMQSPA
purified human plasma kallikrein, sequence (P03952 whole entry partner, looked up): as the sequence (P03952 whole entry, looked up) above

purified human Factor XIa, sequence (P03951 whole entry, looked up): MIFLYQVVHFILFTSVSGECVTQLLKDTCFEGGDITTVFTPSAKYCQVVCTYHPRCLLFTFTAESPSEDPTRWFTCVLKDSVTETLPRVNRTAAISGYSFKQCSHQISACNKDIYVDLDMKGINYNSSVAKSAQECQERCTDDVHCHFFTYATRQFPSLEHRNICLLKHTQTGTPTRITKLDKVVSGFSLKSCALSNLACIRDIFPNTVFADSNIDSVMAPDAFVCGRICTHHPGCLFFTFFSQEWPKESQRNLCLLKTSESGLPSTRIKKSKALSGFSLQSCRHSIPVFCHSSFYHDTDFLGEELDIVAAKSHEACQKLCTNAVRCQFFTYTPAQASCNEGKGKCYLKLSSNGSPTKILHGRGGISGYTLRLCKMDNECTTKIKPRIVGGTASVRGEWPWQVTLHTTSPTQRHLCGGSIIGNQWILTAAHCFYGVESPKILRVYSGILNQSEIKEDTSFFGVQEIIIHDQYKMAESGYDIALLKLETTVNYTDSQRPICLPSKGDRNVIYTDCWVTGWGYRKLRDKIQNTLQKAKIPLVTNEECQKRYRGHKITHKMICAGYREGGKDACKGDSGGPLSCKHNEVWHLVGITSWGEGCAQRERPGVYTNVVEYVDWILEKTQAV
purified human Factor XIa, sequence (P03951 whole entry partner, looked up): as the sequence (P03951 whole entry, looked up) above

Structure (SMILES) | Ki [1] | Ki [2]
C[C@@H]1CCC[C@H](N2CCC(c3c(F)ccc(Cl)c3F)=CC2=O)c2cc(ccn2)-c2ccc(Nc3cnccn3)cc2NC1=O [Example 93, (10R,14S)-14-[4-(3-Chloro-2,6-difluorophenyl)-6-oxo-1,2,3,6-tetrahydropyridin-1-yl]-10-methyl-5-[(pyrazin-2-yl)amino]-8,16-diazatricyclo[13.3.1.0^2,7]nonadeca-1(19),2(7),3,5,15,17-hexaen-9-one, 2 TFA salt] | 1.4 nM | 3 nM
C[C@@H]1CCC[C@H](N2CCC(c3c(C#N)ccc(Cl)c3F)=CC2=O)c2cc(ccn2)-c2cc(F)c(F)cc2NC1=O [Example 211, 4-chloro-2-{1-[(10R,14S)-4,5-difluoro-10-methyl-9-oxo-8,16-diazatricyclo[13.3.1.0^2,7]nonadeca-1(19),2(7),3,5,15,17-hexaen-14-yl]-6-oxo-1,2,3,6-tetrahydropyridin-4-yl}-3-fluorobenzonitrile, TFA salt] | 3.26 nM | 6.46 nM
C[C@@H]1CCC[C@H](N2CCC(c3c(F)ccc(Cl)c3F)=CC2=O)c2cc(ccn2)-c2ccc(Nc3ccncn3)cc2NC1=O [Example 90, (10R,14S)-14-[4-(3-Chloro-2,6-difluorophenyl)-6-oxo-1,2,3,6-tetrahydropyridin-1-yl]-10-methyl-5-[(pyrimidin-4-yl)amino]-8,16-diazatricyclo[13.3.1.0^2,7]nonadeca-1(19),2(7),3,5,15,17-hexaen-9-one, 2 TFA salt] | 1.81 nM | 4 nM
C[C@@H]1CCC[C@H](N2CCC(c3c(C#N)ccc(Cl)c3F)=CC2=O)c2cc(ccn2)-c2ccccc2NC1=O [Example 49, 4-Chloro-3-fluoro-2-{1-[(10R,14S)-10-methyl-9-oxo-8,16-diazatricyclo[13.3.1.0^2,7]nonadeca-1(19),2,4,6,15,17-hexaen-14-yl]-6-oxo-1,2,3,6-tetrahydropyridin-4-yl}benzonitrile, TFA salt] | 1.06 nM | 3 nM
C[C@@H]1CCC[C@H](N2CCC(c3c(F)ccc(Cl)c3F)=CC2=O)c2cc(ccn2)-c2ccc(NC3O[C@H](CO)[C@@H](O[C@H]4O[C@H](CO)[C@@H](O[C@H]5O[C@H](CO)[C@@H](O)[C@H](O)[C@H]5O)[C@H](O)[C@H]4O)[C@H](O)[C@H]3O)cc2NC1=O (stereo partly drawn) [Example 133, (10R,14S)-14-[4-(3-chloro-2,6-difluorophenyl)-6-oxo-1,2,3,6-tetrahydropyridin-1-yl]-5-{[(3R,4R,5S,6R)-5-{[(2R,3R,4R,5S,6R)-3,4-dihydroxy-6-(hydroxymethyl)-5-{[(2R,3R,4S,5S,6R)-3,4,5-trihydroxy-6-(hydroxymethyl)oxan-2-yl]oxy}oxan-2-yl]oxy}-3,4-dihydroxy-6-(hydroxymethyl)oxan-2-yl]amino}-10-methyl-8,16-diazatricyclo[13.3.1.0^2,7]nonadeca-1(19),2,4,6,15,17-hexaen-9-one] | 4.77 nM | 12.6 nM
C[C@@H]1CCC[C@H](N2CCC(c3c(F)ccc(Cl)c3F)=CC2=O)c2cc(ccn2)-c2ccc(NC3O[C@H](CO)[C@@H](O)[C@H](O)[C@@H]3O)cc2NC1=O (stereo partly drawn) [Example 125, (10R,14S)-14-[4-(3-chloro-2,6-difluorophenyl)-6-oxo-1,2,3,6-tetrahydropyridin-1-yl]-10-methyl-5-{[(3S,4S,5S,6R)-3,4,5-trihydroxy-6-(hydroxymethyl)oxan-2-yl]amino}-8,16-diazatricyclo[13.3.1.0^2,7]nonadeca-1(19),2,4,6,15,17-hexaen-9-one] | 15.2 nM | 11.6 nM
COC(=O)Nc1ccc2c(c1)NC(=O)[C@H](C)CCC[C@H](N1CCC(C3CCNCC3)=CC1=O)c1cc-2ccn1 [Example 155, Methyl N-[(10R,14S)-10-methyl-9-oxo-14-[6-oxo-4-(piperidin-4-yl)-1,2,3,6-tetrahydropyridin-1-yl]-8,16-diazatricyclo[13.3.1.0^2,7]nonadeca-1(19),2,4,6,15,17-hexaen-5-yl]carbamate, 2 TFA salt] | 4.88 nM | 199 nM
COC(=O)Nc1ccc2c(c1)NC(=O)[C@H](C)CCC[C@H](N1CCC(c3nccc(Cl)c3OC)=CC1=O)c1cc-2cc(OC)n1 [Example 6, Methyl N-[(10R,14S)-14-[4-(4-chloro-3-methoxypyridin-2-yl)-6-oxo-1,2,3,6-tetrahydropyridin-1-yl]-17-methoxy-10-methyl-9-oxo-8,16-diazatricyclo[13.3.1.0^2,7]nonadeca-1(18),2,4,6,15(19),16-hexaen-5-yl]carbamate, TFA salt] | 158 nM | 303 nM
COC(=O)c1ccc2c(c1)-c1cccc(c1)[C@@H](N1CCC(c3c(C#N)ccc(Cl)c3F)=CC1=O)CCC[C@@H](C)C(=O)N2 [Example 170, Methyl (10R,14S)-14-[4-(3-chloro-6-cyano-2-fluorophenyl)-6-oxo-1,2,3,6-tetrahydropyridin-1-yl]-10-methyl-9-oxo-8-azatricyclo[13.3.1.0^2,7]nonadeca-1(18),2,4,6,15(19),16-hexaene-4-carboxylate] | 46.6 nM | 7.73 nM
COC(=O)Nc1ccc2c(c1)C(=O)NCC/C=C/C[C@H](N1CCC(c3c(F)ccc(Cl)c3F)=CC1=O)c1cc-2ccn1 [Example 216, Methyl N-[(12E,15S)-15-[4-(3-chloro-2,6-difluorophenyl)-6-oxo-1,2,3,6-tetrahydropyridin-1-yl]-8-oxo-9,17-diazatricyclo[14.3.1.0^2,7]icosa-1(20),2(7),3,5,12,16,18-heptaen-5-yl]carbamate, TFA salt] | 264 nM | 212 nM
COC(=O)Nc1ccc2c(c1)NC(=O)[C@H](C)CCC[C@H](N1CCC(C3CCCC(C)C3)=CC1=O)c1cc-2ccn1 (stereo partly drawn) [Example 159, Methyl N-[(10R,14S)-10-methyl-14-[4-(3-methylcyclohexyl)-6-oxo-1,2,3,6-tetrahydropyridin-1-yl]-9-oxo-8,16-diazatricyclo[13.3.1.0^2,7]nonadeca-1(19),2,4,6,15,17-hexaen-5-yl]carbamate, TFA salt (diastereomeric isomers)] | 63.2 nM | 58.9 nM
C[C@@H]1CCC[C@H](N2CCC(c3c(C#N)ccc(Cl)c3F)=CC2=O)c2cc(ccn2)-c2cc(F)ccc2NC1=O [Example 150, 4-chloro-3-fluoro-2-{1-[(10R,14S)-4-fluoro-10-methyl-9-oxo-8,16-diazatricyclo[13.3.1.0^2,7]nonadeca-1(19),2(7),3,5,15,17-hexaen-14-yl]-6-oxo-1,2,3,6-tetrahydropyridin-4-yl}benzonitrile] | 0.99 nM | 2.27 nM
COC(=O)Nc1ccc2c(c1)NC(=O)[C@H](C)CCC[C@H](N1CCC(c3ccccc3OC)=CC1=O)c1cc-2ccn1 [Example 116, Methyl N-[(10R,14S)-14-[4-(2-methoxyphenyl)-6-oxo-1,2,3,6-tetrahydropyridin-1-yl]-10-methyl-9-oxo-8,16-diazatricyclo[13.3.1.0^2,7]nonadeca-1(18),2,4,6,15(19),16-hexaen-5-yl]carbamate] | 267 nM | 739 nM
C[C@@H]1CCC[C@H](N2CCC(c3c(F)ccc(Cl)c3F)=CC2=O)c2cc(ccn2)-c2ccc(Nc3cccnc3)cc2NC1=O [Example 195, (10R,14S)-14-[4-(3-chloro-2,6-difluorophenyl)-6-oxo-1,2,3,6-tetrahydropyridin-1-yl]-10-methyl-5-[(pyridin-3-yl)amino]-8,16-diazatricyclo[13.3.1.0^2,7]nonadeca-1(19),2(7),3,5,15,17-hexaen-9-one, 3 TFA salt] | 0.47 nM | 2.96 nM
C[C@@H]1CCC[C@H](N2CCC(c3c(Br)ccc(Cl)c3F)=CC2=O)c2cccc(c2)-c2cc(C(=O)O)ccc2NC1=O [Example 167, (10R,14S)-14-[4-(6-bromo-3-chloro-2-fluorophenyl)-6-oxo-1,2,3,6-tetrahydropyridin-1-yl]-10-methyl-9-oxo-8-azatricyclo[13.3.1.0^2,7]nonadeca-1(19),2,4,6,15,17-hexaene-4-carboxylic acid] | 0.81 nM | 20.1 nM
COC(=O)Nc1ccc2c(c1)NC(=O)[C@H](C)CCC[C@H](N1CCC(c3c(OC(F)F)ccc(Cl)c3F)=CC1=O)c1ccnc-2c1 [Example 31, Methyl N-[(10R,14S)-14-{4-[3-chloro-6-(difluoromethoxy)-2-fluorophenyl]-6-oxo-1,2,3,6-tetrahydropyridin-1-yl}-10-methyl-9-oxo-8,18-diazatricyclo[13.3.1.0^2,7]nonadeca-1(19),2,4,6,15,17-hexaen-5-yl]carbamate, TFA salt] | 0.04 nM | 3 nM
CC(=O)N[C@@H]1C(Nc2ccc3c(c2)NC(=O)[C@H](C)CCC[C@H](N2CCC(c4c(F)ccc(Cl)c4F)=CC2=O)c2cc-3ccn2)O[C@H](CO)[C@@H](O)[C@@H]1O (stereo partly drawn) [Example 130, N-[(3S,4R,5S,6R)-2-{[(10R,14S)-14-[4-(3-chloro-2,6-difluorophenyl)-6-oxo-1,2,3,6-tetrahydropyridin-1-yl]-10-methyl-9-oxo-8,16-diazatricyclo[13.3.1.0^2,7]nonadeca-1(19),2,4,6,15,17-hexaen-5-yl]amino}-4,5-dihydroxy-6-(hydroxymethyl)oxan-3-yl]acetamide] | 8.51 nM | 26.5 nM
C[C@@H]1CCC[C@H](N2CCC(c3c(F)ccc(Cl)c3F)=CC2=O)c2cc(cc[n+]2[O-])-c2ccc(N)cc2NC1=O [Example 70, (10R,14S)-5-Amino-14-[4-(3-chloro-2,6-difluorophenyl)-6-oxo-1,2,3,6-tetrahydropyridin-1-yl]-10-methyl-9-oxo-8,16-diazatricyclo[13.3.1.0^2,7]nonadeca-1(19),2,4,6,15,17-hexaen-16-ium-16-olate, TFA salt] | 8.02 nM | 18 nM
CC1CCC[C@H](N2CCC(c3c(F)ccc(Cl)c3F)=CC2=O)c2cc(ccn2)-c2ccc(C(N)=O)cc2NC1=O (stereo partly drawn) [Example 107, (14S)-14-[4-(3-Chloro-2,6-difluorophenyl)-6-oxo-1,2,3,6-tetrahydropyridin-1-yl]-10-methyl-9-oxo-8,16-diazatricyclo[13.3.1.0^2,7]nonadeca-1(18),2,4,6,15(19),16-hexaene-5-carboxamide, TFA salt] | 17.4 nM | 88 nM
